Measurements taken from patent US6297230A, “Cyanoaziridines for treating cancer” (priority 2000, dated 2001).
Like-named read-outs stand apart in the source and are kept apart here.

What was measured:
[1] = system: human prostate cancer tumors; experiment: Activity in prostate cancer in SCID mouse model; assay type: in vivo, human tumors in SCID mice; conditions: Table 1B
[2] = system: human lymphoma, melanoma, and prostate cancer cell lines; conditions: cited from earlier work
Myelosuppression = conditions: in vivo
[3] = system: DNA of 8226 myeloma cells; experiment: Imexon-induced DNA single strand breaks by alkaline elution; assay type: cell-based, human; conditions: for DNA single strand breaks: 8226 cells, 10-500 μg/mL
Procedure: (§1) Using the colorimetric microculture tetrazolium (MTT) assay, imexon and 25-related analogs were studied for tumor growth inhibition in vitro. Imexon-induced DNA single strand breaks were assessed by alkaline elution. Cells were exposed to imexon for 1 hour prior to start of experiment. The fraction of ^14 C-labeled DNA retained on the filter is plotted against the time of elution. The cells included parental 8226 myeloma cells and the 8226 imexon-resistant cells exposed to drug (imexon or analog) continuously for 10 days at 37° C. At the end of the exposure period, the cells were analyzed for viability using the formazan-forming tetrazolium dye (MTT) assay.
These strand breaks are noted by an enhanced rate of ^14 C-DNA elution through the filters after a one-hour exposure to imexon (10-500 μg/mL) at 30° C. At high imexon concentrations of≥100 μg/mL, over 75% of the radiolabeled DNA is eluted through the filters over the test period. By comparison, control cell DNA is highly retained (>95%) on the filter over the same 24-hour elution period.

8226/S myeloma cells = experiment: MTT growth inhibition, parental 8226 myeloma cells; assay type: cell-based, human; conditions: Homo sapiens, read-out: IC50
Procedure: (§2) Microculture Tetrazolium (MTT) Assay for Tumor Cells
(§3) Tumors are disaggregated into single cell suspensions using mechanical, hypoosmotic, and/or enzymatic (trypsin) methods. The cells are plated at a concentration of 3-5×10^4 per […] well into plastic 96-well plates. Growth medium containing 5-10% (vol/vol) heat-inactivated fetal bovine serum and penicillin/streptomycin (both […]) are added prior to incubation at 37° C. for 6 days. Afterwards the medium containing the drug is removed, the cells are centrifuged in fresh medium or phosphate-buffered saline (pH 7.4). A tetrazolium dye, […]-2,5-diphenyl tetrazolium (MTT), is then added. (Mossman, T., J Immunol 65:55-63, 1983.) This dye forms a colored formazan product upon activation by mitochondrial reductases in viable cells. Typically, the formazan product is solubilized in acid-propanol or DMSO. The intensity of the color is proportional to viable cell numbers and this is quantitated by spectrophotometric absorbance at 570 nm on a micro ELISA plate reader. The results are calibrated in % control absorbance from untreated tumor cells. (Alley, et al., Cancer Res 48:589-601, 1988.)
(§4) The following unpublished studies were performed in vitro to develop and characterize a human myeloma cell line with resistance to imexon-induced cytotoxicity. The original (parental) 8226 cell line was developed by Matsuoka, et al. (Matsuoka, et al., Proc Soc Exp Biol Med 125:1246-1250, 1967). It is a lymphoblastoid cell line which stains for lambda light immunoglobulin production. It grows in vitro in suspension culture (non-adherent) and forms tumors when injected into SCID mice. (Skehan, et al., J Natl Cancer Inst 82:1107-1112, 1990.)
(§5) One exciting feature of our novel compounds is, that they work on imexon-resistant cells. An imexon-resistant 8226 myeloma cell line was selected by continuously exposing cells to gradually increasing concentrations of imexon up to 3.25 mg/mL. This cell line has slightly longer cell doubling time than 8226 sensitive cells (24 vs 20 hours). […] The dose response curve for imexon continuous exposure was determined using MTT assay. Each data point represents the mean of three experiments performed in 8 replicates.
(§6) We compared IC50 concentrations and there is a 4-fold resistance observed for the 8226/I-R cell line when the cells were continuously exposed to imexon for […] at 37° C. The degree of resistance was relatively unstable in the absence of the drug, with the resistant cells losing substantial resistance when maintained in imexon-free medium for 20 weeks (FIG. 2).
(§7) IC50 was measured by MTT assay. IC50 refer to the concentration by drug that results in 50% growth inhibition. A minimum of 2 assays were performed for each drug following 250 mg/mL imexon is equivalent to 6.5 cGy radiation in sensitive cells.
as §1

8226/I-R myeloma cells = experiment: MTT growth inhibition, imexon-resistant 8226 myeloma cells; assay type: cell-based, human; conditions: for IC50: Homo sapiens, read-out: IC50; for Fold Resistance (IC50 resistant cells/IC50 sensitive cells): Table 4, 8226/I-R vs 8226/S
Procedure: as §2, §3, §4, §5, §6, §7, §1

human tumor cell lines = conditions: in culture; cited from earlier work
transplanted tumors = conditions: rodents; cited from earlier work
mast cell tumors = conditions: cited from earlier work
[4] = background statement; cited from earlier work
Oral activity in mice = assay type: in vivo
[5] = Tolerability and activity on prolonged dosing in tumor-bearing mice and dogs; assay type: in vivo; conditions: suggested by prior studies in mice and dogs
[6] = system: AIDS-related lymphoma / lymphoma cells; experiment: Activity against lymphoma cells in vitro; assay type: cell-based; conditions: Table 1B
[7] = system: multiple myeloma (clonogenic assay); conditions: cited from earlier work
[8] = cited from earlier work
[9] = system: advanced solid tumors in cancer patients; conditions: cited from earlier work; for Clinical response: Phase I clinical trials
[10] = system: L-1210 MDR leukemia cells; conditions: cited from earlier work
[11] = system: OVCAR-3 ovarian carcinoma cells; conditions: cited from earlier work
MCF-7/MITOX cells = conditions: cited from earlier work
MCF-7/ADR cells = conditions: cited from earlier work
WiDr MITOX cells = conditions: cited from earlier work
MCF-7/D40 cells = conditions: MCF-7/DOX40; cited from earlier work

N=C1NC(=O)N2CC12 (stereo not shown) [AMP 400, 4-imino-1,3-diazabicyclo[3.1.0]hexan-2-one]
Activity in prostate cancer [1]: active in
Activity against human tumor cell lines in SCID mice [2]: active against human lymphoma, melanoma, and prostate cancer cell lines in SCID mice
Myelosuppression (Myelosuppression): has not demonstrated myelosuppressive toxicity
DNA single strand breaks ([3]; one-hour exposure, listed as Imexon): induced single strand breaks in both 8226 imexon-sensitive and resistant cells
DNA single strand breaks ([3]; one-hour exposure, listed as imexon): induces concentration-dependent single-stranded breaks in tumor cell DNA
DNA strand breaks, resistant vs sensitive cells ([3]; given dose of imexon, p<0.05): fewer strand breaks in imexon-resistant cells than in sensitive cells
Radiolabeled DNA eluted over the test period ([3]; imexon ≥100 μg/mL, one-hour exposure): over 75%
Radiation equivalent of 250 mg/mL imexon ([3]; sensitive cells, 250 μg/mL imexon): 6.5 cGy
IC50 (8226/S myeloma cells; 8226/S, MTT): 27 µM
IC50 (8226/S myeloma cells; Table 5, Sensitive (parental) 8226): 1 µg/mL
IC50 (8226/I-R myeloma cells; 8226/I-R, MTT): 120 µM
IC50 (8226/I-R myeloma cells; Table 5, imexon-resistant 8226): 8.5 µg/mL
Fold Resistance (IC50 resistant cells/IC50 sensitive cells) (8226/I-R myeloma cells): 4.44
Fold Resistance of IC50 R/IC50 's (8226/I-R myeloma cells; Table 5, imexon-resistant vs sensitive 8226): 4.5
Fold resistance (8226/I-R myeloma cells; continuous exposure for 5 days at 37° C): 4 fold
Activity against human tumor cell lines (human tumor cell lines): active against a variety of human tumor cell lines in culture
Activity against transplanted tumors (transplanted tumors): active against a variety of transplanted tumors in rodents
Objective responses in dogs (mast cell tumors): Objective responses were observed in dogs with mast cell tumors
Myelosuppression [4]: not myelosuppressive
Oral activity (Oral activity in mice): not active orally in mice
Maximally-tolerated human dose [5]: approximately 500 mg/m^2 /day
Activity in lymphoma in vitro [6]: active in vitro
Cytotoxicity to multiple myeloma [7]: selectively cytotoxic to multiple myeloma in the clonogenic assay
Tolerability ([8]; Phase I, Europe, 1985): well tolerated
Nausea (mild, transient) ([8]; patients): 13%
Vomiting ([8]; patients): 23%
Clinical response ([9]; listed as Imexon): produced objective responses or stabilized neoplastic diseases in cancer patients
Clinical response ([9]; listed as parent compound): parent compound
Additional patients with disease stabilization ([9]; advanced tumors): 8 patients
Duration of disease stabilization ([9]; advanced tumors): 4-24 months
Objective responses, evaluable patients ([9]; breast cancer): 1/7
Duration of complete disappearance of measurable disease ([9]; lung cancer): 33 months
Objective responses, evaluable patients ([9]; lung cancer): 1/7
Duration of complete disappearance of measurable disease ([9]; melanoma): 42 months
Objective responses, evaluable patients ([9]; melanoma): 1/7
Stable disease, number of patients ([9]; one NSCLC, four breast cancer, one liver cancer): 6 patients
Duration of complete remission ([9]; one patient, metastatic NSCLC): over 14 years

COc1cccc2c1C(=O)c1c(O)c3c(c(O)c1C2=O)C[C@@](O)(C(=O)CO)C[C@@H]3O[C@H]1C[C@H](N)[C@H](O)[C@H](C)O1 [Doxorubicin]
IC50 (8226/S myeloma cells; 8226/S, MTT): 0.00043 µM
Cross-resistance of imexon-resistant cells (8226/I-R myeloma cells; 8226 imexon-resistant cells, MTT): remains sensitive
IC50 (8226/I-R myeloma cells; 8226/I-R, MTT): 0.00032 µM
Fold Resistance (IC50 resistant cells/IC50 sensitive cells) (8226/I-R myeloma cells): 0.79
Cross-resistance of L-1210 MDR [10]: cross-resistant
Resistance of OVCAR-3 [11]: resistant in vitro to clinically relevant concentrations
Resistance of MCF-7/MITOX (MCF-7/MITOX cells): only partially resistant
Decrease in sensitivity to doxorubicin (MCF-7/ADR cells): 192 fold
Fold resistance of WiDr MITOX cells (WiDr MITOX cells): 8 fold

COc1ccc(CCN(C)CCCC(C#N)(c2ccc(OC)c(OC)c2)C(C)C)cc1OC (stereo not shown) [verapamil]
Reversal of resistance [10]: resistance can be reversed
Reversal of resistance (MCF-7/MITOX cells): resistance is not modulated (reversed)
Reversal of resistance (MCF-7/D40 cells): sensitized (resistance reversed)
